Results on ten compounds are retold here after paper PMC7168207, “Dibasic Derivatives of Phenylcarbamic Acid as Prospective Antibacterial Agents Interacting with Cytoplasmic Membrane” (Antibiotics, 2020).

“And” between values parts separate entries of the source, which are not always exact repeats. Equal values may be shown once.

Details of series [1]: method as in PMID 30274224. As to conditions: methanolic solutions, c = 8.0 × 10^−5 M; cited from earlier work.
The subject of series [2] is E. faecalis ATCC 29212. The series can be described thus: MIC, broth microdilution. In kind it is cell-based, Enterococcus faecalis. As to conditions: Enterococcus faecalis, ATCC 29212 / ATCC 29213; EF = E. faecalis ATCC 29213. Here is the method:
(§1) The modified broth microdilution method was used for in vitro evaluation of minimum inhibitory concentration. A small portion of bacterial colony cultivated overnight onto nutrient agar (Oxoid, Basingstoke, UK) with 5% bovine blood was suspended in sterile phosphate-buffered saline to get cell density 0.5 McFarland. This inoculum was diluted to reach the final concentration of bacterial cells 5 × 10^5 CFU/mL in the wells. […] For plates with staphylococci, cation adjusted Mueller–Hinton (CaMH) broth (Oxoid) was used; enterococci were cultivated in brain heart infusion (BHI, Oxoid). […] A drug-free control and a sterility control were included. Inoculated plates were incubated in aerobic atmosphere at 37 °C overnight. […] After evaluation of MICs, 10 µL of aliquots from the wells were put onto Mueller–Hinton agar. The agar plates were cultivated at 37 °C for 24 h. The minimum bactericidal concentration (MBC) was defined as the lowest concentration of the compound that killed 99.9% of the bacteria compared to the starting inoculum.
(In general: Broth dilution looks for growth in wells or tubes with falling amounts of substance.)

Series [3] relates to vancomycin-resistant enterococci VRE 368. The series can be described thus: MIC, broth microdilution. In kind it is cell-based, Enterococcus faecalis. As to conditions: Enterococcus; VRE2 = VRE 368; read-out: MICs. Here is the method:
as §1

The subject of series [4] is vancomycin-resistant enterococci VRE 725B. Briefly: MIC, broth microdilution. The class given is cell-based, Enterococcus faecalis. As to conditions: Enterococcus; VRE3 = VRE 725B; read-out: MICs. How it is done:
as §1

In series [5] the test system is vancomycin-resistant enterococci VRE 342B. The series can be described thus: MIC, broth microdilution. The class given is cell-based, Enterococcus faecalis. As to conditions: Enterococcus; VRE1 = VRE 342B; read-out: MICs. How it is done:
as §1

The test system of series [6] is methicillin-resistant S. aureus SA 3202. The series can be described thus: MIC, broth microdilution. In kind it is cell-based, Staphylococcus aureus. As to conditions: Staphylococcus aureus; MRSA3 = SA 3202; read-out: MICs. How it is done:
as §1

Series [7] has as its system methicillin-resistant S. aureus SA 630. Briefly: MIC, broth microdilution. As to conditions: Staphylococcus aureus; MRSA2 = SA 630; read-out: MICs. In kind it is cell-based, Staphylococcus aureus. Here is the method: as §1
Series [8] has as its system methicillin-resistant S. aureus 63718. The series can be described thus: MIC, broth microdilution. In kind it is cell-based, Staphylococcus aureus. As to conditions: Staphylococcus aureus; MRSA1 = S. aureus 63718; read-out: MICs. How it is done:
as §1

In series [9] the test system is S. aureus ATCC 29213. The series can be described thus: MIC, broth microdilution. The class given is cell-based, Staphylococcus aureus. As to conditions: Staphylococcus aureus, ATCC29213; SA = S. aureus ATCC 29213; read-out: MICs. How it is done: as §1
In series [10] the test system is Candida albicans CCM 8261. The series can be described thus: minimum fungistatic concentration, RPMI 1640. As to conditions: CCM8261, CA = C albicans CCM 8261, 48 h. In kind it is cell-based. Here is the method: Fungistatic activity was tested similarly in RPMI (Roswell Park Memorial Institute) 1640 medium (Sigma, Pool, UK). […] A growth control and sterility control were included. The colonies of C. albicans grown overnight on Sabourad dextrose agar were suspended in sterile phosphate-buffered saline (PBS) to get cell density 0.5 McFarland. The inoculum was diluted to get a final concentration of 10^3 CFU/mL in the wells. Plates were inoculated and cultivated at 37 °C for 48 h. The minimum fungistatic concentration was visually evaluated as the lowest concentration of a tested compound, which inhibited 100% of yeast growth. 5-Flucytosin (Sigma, UK) was used as a positive control.

On the set-up of series [11]: method as in PMID 30274224. As to conditions: cited from earlier work.
Series [12] deals with human monocytic leukemia THP-1 cells. Briefly: in vitro antiproliferative assay (WST-1). As to conditions: Homo sapiens, THP-1, 24 h, THP-1 cells, WST-1, 24 h; read-out: Tox IC50. The class given is cell-based. Here is the method: The preliminary in vitro screening of the antiproliferative effect of the investigated compounds was performed using a Water Soluble Tetrazolium salts-1 (WST-1) assay kit and a human monocytic leukemia THP-1 cell line by means of the method described recently. The principle of the WST-1 assay kit is the […] mitochondrial dehydrogenases by antiproliferative compounds. The activity of this enzyme directly correlates with the number of metabolically active cells in the culture. The antiproliferative effect was evaluated as the IC50 value (the concentration of the compound causing 50% inhibition of cell proliferation).
Human monocytic leukemia THP-1 cells were used for in vitro antiproliferative assay. Cells were obtained from the European Collection of Cell Cultures (ECACC, Salisbury, UK) and routinely cultured in RPMI (Roswell Park Memorial Institute) 1640 medium supplemented with 10% fetal bovine serum, 2% L-glutamine, 1% penicillin, and streptomycin at 37 °C with 5% CO2. Cells were passaged at approximately one-week intervals. The antiproliferative activity of the compounds was determined using a Water Soluble Tetrazolium Salts-1 (WST-1, 2-(4-iodophenyl)-3-(4-nitrophenyl)-5-(2,4-disulfophenyl)-2H-tetrazolium) assay kit (Roche Diagnostics, Mannheim, Germany) according to the manufacturer’s instructions. The tested compounds were dissolved in DMSO and added in various compound concentrations to the cell suspension in the culture RPMI 1640 medium. The maximum concentration of DMSO in the assays never exceeded 0.1%. Subsequently, the cells were incubated at 37 °C with 5% CO2 for 24 h. For WST-1 assays, cells were seeded into 96-well plates (5 × 10^4 cells/well in 100 μL culture medium) in triplicate in serum-free RPMI 1640 medium, and measurements were taken 24 h after the treatment with the compounds. The median inhibition concentration values, IC50, were deduced through the production of a dose-response curve. All data were evaluated using GraphPad Prism 5.00 software (GraphPad Software, San Diego, CA, USA).

On the set-up of series [13]: method as in PMID 30274224. As to conditions: isocratic RP-HPLC, extrapolated lipophilicity index; cited from earlier work.

On to `CCCCCCOc1ccccc1NC(=O)OC(CN(CCC)CCC)CN1CCCC1` (centres unmarked) [1c], for which, in [1], the “log ε2 (Ch-T)” value is on record as 4.52. Further, the MIC in series [2] is > 256 µg/mL and > 407 µM; in series [3] it was > 256 µg/mL and > 407 µM; in [4], > 256 µg/mL and > 407 µM; in series [5] it was > 256 µg/mL and > 407 µM; in [6], > 256 µg/mL and > 407 µM; in series [7] it was > 256 µg/mL and > 407 µM. Further, the MIC in series [8] is > 256 µg/mL and > 407 µM; in series [9] it was > 256 µg/mL and > 407 µM; in series [10] it was > 128 µg/mL and > 203 µM. Moreover, the “γ (surface tension, relative surface activity)” value in series [11] is 0.06222 N/m. The IC50 (commonly the concentration that gives 50% inhibition) in series [12] is 15.4 ± 0.22 µM. Moreover, in series [13], the log kw was 4.6049.
For `O=C(O)c1cn(C2CC2)c2cc(N3CCNCC3)c(F)cc2c1=O` [CPX, ciprofloxacin, reference compound], the MIC in series [6], in [7] and in series [8] was above 16 µg/mL each time.
Take `CCCCCCCOc1ccccc1NC(=O)OC(CN(CCC)CCC)CN1CCCC1` (centres unmarked) [1d]: the “log ε2 (Ch-T)” value in series [1] is on record as 4.08. The MIC in [2] is > 256 µg/mL and > 398 µM; in series [3], > 256 µg/mL and > 398 µM; in series [4] it was > 256 µg/mL and > 398 µM; in series [5], > 256 µg/mL and > 398 µM; in series [6], > 256 µg/mL and > 398 µM; in [7], > 256 µg/mL and > 398 µM. Besides, the MIC is > 256 µg/mL and > 398 µM in [8]; > 256 µg/mL and > 398 µM in series [9]; > 128 µg/mL and 199 µM in series [10]. Besides, the “γ (surface tension, relative surface activity)” value in series [11] is 0.05985 N/m. For the same compound, in series [12], the IC50 is 16.3 ± 0.7 µM. For the same compound, in [13], the log kw is 4.9487.
For the compound `CCCCOc1ccccc1NC(=O)OC(CN(CCC)CCC)CN1CCCCCC1` (centres unmarked) [1i], the “log ε2 (Ch-T)” value in [1] is recorded as 4.08. The MIC in [2] is > 256 µg/mL and > 407 µM; in series [3] it was > 256 µg/mL and > 407 µM; in [4], > 256 µg/mL and > 407 µM; in series [5] it was > 256 µg/mL and > 407 µM; in [6], > 256 µg/mL and > 407 µM; in [7], > 256 µg/mL and > 407 µM. In addition, the MIC in [8] is > 256 µg/mL and > 407 µM; in series [9] it was > 256 µg/mL and > 407 µM; in series [10], > 128 µg/mL and > 203 µM. The “γ (surface tension, relative surface activity)” value in series [11] was 0.06302 N/m. In addition, the IC50 in series [12] turned out to be 23.1 ± 0.95 µM. In [13], the log kw was 4.4679.
As to `Nc1[nH]c(=O)ncc1F` [5-FC, flucytosine, reference compound], the MIC in series [10] was 1 µg/mL and 7.75 µM.
On to `CC[C@@]1(O)C(=O)OCc2c1cc1n(c2=O)Cc2cc3ccccc3nc2-1` [CMP, camptothecin, reference compound], for which the IC50 in [12] was around 0.2 µM.
Turning to `CCCCOc1cccc(NC(=O)OC(CN(CCC)CCC)CN2CCCC2)c1` (centres unmarked) [1e], the “log ε2 (Ch-T)” value in series [1] is 4.24. The MIC in [2] was 128 µg/mL and 259 µM; in [3], 64 µg/mL and 129 µM; in series [4] it was 32 µg/mL and 65.1 µM; in series [5], 32 µg/mL and 65.1 µM; in [6], 64 µg/mL and 129 µM; in series [7] it was 64 µg/mL and 129 µM. Moreover, the MIC is 64 µg/mL and 129 µM in series [8]; 64 µg/mL and 129 µM in series [9]; > 128 µg/mL and > 259 µM in series [10]. In series [11], the “γ (surface tension, relative surface activity)” value is recorded as 0.06316 N/m. In series [12], the IC50 turned out to be 4.2 ± 0.79 µM. Further, the log kw in [13] was 4.0258.
With `CCCCCOc1ccccc1NC(=O)OC(CN(CCC)CCC)CN1CCCC1` (centres unmarked) [1b], the “log ε2 (Ch-T)” value in [1] is listed as 4.05. The MIC is > 256 µg/mL and > 417 µM in [2]; > 256 µg/mL and > 417 µM in series [3]; > 256 µg/mL and > 417 µM in series [4]; > 256 µg/mL and > 417 µM in [5]; > 256 µg/mL and > 417 µM in series [6]; > 256 µg/mL and > 417 µM in series [7]. Also, the MIC in [8] is > 256 µg/mL and > 417 µM; in [9], > 256 µg/mL and > 417 µM; in [10], > 128 µg/mL and > 208 µM. In series [11], the “γ (surface tension, relative surface activity)” value was 0.06366 N/m. For the same compound, in series [12], the IC50 stood at 12.5 ± 1.22 µM. In addition, in series [13], the log kw is reported as 4.0454.
Regarding `CCCCCCCOc1ccccc1NC(=O)OC(CN(CCC)CCC)CN1CCCCCC1` (centres unmarked) [1l], in series [1], the “log ε2 (Ch-T)” value was 4.14. In addition, the MIC was > 256 µg/mL and > 382 µM in series [2]; > 256 µg/mL and > 382 µM in [3]; > 256 µg/mL and > 382 µM in series [4]; > 256 µg/mL and > 382 µM in [5]; > 256 µg/mL and > 382 µM in series [6]; > 256 µg/mL and > 382 µM in series [7]. In addition, the MIC in [8] was > 256 µg/mL and > 382 µM; in series [9] it was > 256 µg/mL and > 382 µM; in series [10], > 128 µg/mL and > 191 µM. Moreover, the “γ (surface tension, relative surface activity)” value in series [11] was 0.05853 N/m. In addition, the IC50 in series [12] was determined as 29.75 ± 0.14 µM. Also, the log kw in series [13] is reported as 5.8966.
For `CC1(C)S[C@@H]2[C@H](NC(=O)[C@H](N)c3ccccc3)C(=O)N2[C@H]1C(=O)O` [AMP, ampicillin, reference compound], the MIC is 2 µg/mL and 5.72 µM in series [4]; > 16 µg/mL and > 45.8 µM in series [6]; > 16 µg/mL and > 45.8 µM in series [7]; 16 µg/mL and 45.8 µM in series [8]; 2 µg/mL and 5.72 µM in series [9]. The IC50 in series [12] is above 30 µM.
